From publication PMC8121805, “Discovery of first-in-class inhibitors of ASH1L histone methyltransferase with anti-leukemic activity” (Nature Communications, 2021)
Where “and” joins values, the source holds several entries; their conditions need not be identical. Equal values may be shown once.

Tests used:
Format in all cases: cell-based, human
MOLM13 cells = test: MTT cell viability assay; details: MTT, 7 days
Method: (§1) FBS and 1% penicillin/streptomycin. […] Media was changed on day 3 or 4 and compounds were resupplied. […] Cell suspensions (100 μL) were transferred to the 96-well plates for each sample in quadruplicate at the time of media change. At day 7, 10 µL of MTT reagent (M6494, Molecular Probes™) was added to each well of the 96 well plate and incubated at 37 °C for 4 h. The formazan was then solubilized by adding 100 µL acidified 10% SDS solution and incubated at 37 °C overnight. Plates were read for absorbance at 570 nm using a PHERAstar BMG microplate reader. The experiments were performed two times in quadruplicates with calculation of mean and SD for each condition. Data were analyzed in Prism 8.0.0 to obtain GI50 values.
(§2) Supplementary Figure 7. […] (a)
(§3) Titration curves from the MTT cell viability assay performed after 4, 7, and 11 (or 10) days of
(§4) Titration curves from the MTT cell viability assay performed after 7 days of treatment of KOPN8 ,
(§5) MOLM13 and MV4;11 cell lines harboring MLL1 translocation (MLL1-r) or K562 cell line (non-
(§6) Representative graphs are shown
(§7) from two independent MTT experiments performed for each cell line.

MV4;11 cells = test: MTT cell viability assay; details: MTT, 7 days
Method: as §1, §2, §3, §4, §5, §6, §7

K562 cells = test: MTT cell viability assay
Method: (§8) Human leukemia cells K562, MV4;11 and RS4;11 (purchased from ATCC) and KOPN8, MOLM13 (purchased from DSMZ) were cultured in RPMI 1640 (Invitrogen) supplemented with 10% heat inactivated (h.i.) FBS and 1% penicillin/streptomycin (Invitrogen). SET2 cells (purchased from DSMZ) were cultured in RPMI 1640 supplemented with 20% h.i. FBS and 1% penicillin/streptomycin. Cells were plated at 1 × 10^5 to 2 × 10^5 cells/mL depending on cell line and treated with 0.25% DMSO or varying concentrations of compounds and incubated at 37 °C, 5% CO2 incubator for 7 days. Media was changed on day 3 or 4 and compounds were resupplied. […] Cell suspensions (100 μL) were transferred to the 96-well plates for each sample in quadruplicate at the time of media change. At day 7, 10 µL of MTT reagent (M6494, Molecular Probes™) was added to each well of the 96 well plate and incubated at 37 °C for 4 h. The formazan was then solubilized by adding 100 µL acidified 10% SDS solution and incubated at 37 °C overnight. Plates were read for absorbance at 570 nm using a PHERAstar BMG microplate reader. The experiments were performed two times in quadruplicates with calculation of mean and SD for each condition. Data were analyzed in Prism 8.0.0 to obtain GI50 values.
as §2, §3, §4, §5, §6
(§9) from two independent MTT experiments performed for each cell line. GI50 values correspond to […]

KOPN8 cells = test: MTT cell viability assay; details: MTT, 7 days
Method: as §8, §2, §3, §4, §5, §6, §9

[1] = test system: MLL fusion target genes in MV4;11 cells; test: Real time qRT-PCR gene expression
Method: 0.5 × 10^6 – 3 × 10^6 cells from each sample were collected at days 7 or 8 of treatment, centrifuged at 211 xg, and RNA was extracted according to the RNeasy Mini Kit protocol (74106, Qiagen). Extracted RNA was quantified using Nanodrop 2000 UV-Vis spectrophotometer and 0.5–1 µg of total RNA was reverse transcribed into cDNA using High-Capacity cDNA Reverse Transcription Kit (4368814, Applied Biosystems™) according to the manufacturer’s protocol. Real-time PCR was performed using the CFX96 Touch Real-Time PCR Detection System (Bio-Rad). TaqMan Gene Expression Master Mix and TaqMan Gene Expression Assays were purchased from Applied Biosystems. Relative quantification of each gene transcript was carried out using the comparative Ct method as described in the Applied Biosystems User Bulletin no. 2. TaqMan Gene Expression Assays were used: HPRT1: Hs02800695_m1, DLX2: Hs00269993_m1, FLT3: Hs00174690_m1, HOXA9: Hs00365956_m1, MEF2C: Hs00231149_m1, MEIS1: Hs00180020_m1, MNDA: Hs00935905_m1.
Supplementary Figure 10. Effect of AS-nc on gene expression in MLL leukemia cells. (a, b) Quantitative RT-PCR performed in MOLM13 cells (a) or MV4;11 cells (b) after 7 days of treatment with AS-nc. Gene expression was normalized to HPRT1 and referenced to the DMSO treated cells. Representative data from two independent experiments, each performed in triplicates, […]

[2] = test system: MLL leukemia cells (MV4;11, MOLM13, KOPN8, RS4;11); test: MTT cell viability assay, MLL leukemia cells as a group
Method: as §8
Supplementary Figure 4. Cell viability assay for AS-6 in MLL leukemia cell lines. Titration curves from the MTT cell viability assay performed after 7 days of treatment of human MLL1- […]
replicates. Representative graphs are shown from two independent MTT experiments performed […]
as §2
Titration curves from the MTT cell viability assay performed after 4, 7, and 11 (or 10) days of […]
Titration curves from the MTT cell viability assay performed after 7 days of treatment of KOPN8 , MOLM13 and MV4;11 cell lines harboring MLL1 translocation (MLL1-r) or K562 cell line (non- […]
Representative graphs are shown from two independent MTT experiments performed for each cell line. GI50 values correspond to […]

[3] = MTT, 7 days, log[compound] -4.92082
[4] = MTT, 7 days, log[compound] -5.22185
[5] = MTT, 7 days, log[compound] -5.52288
[6] = MTT, 7 days, log[compound] -5.82391
[7] = MTT, 7 days, log[compound] -6.12494
[8] = MTT, 7 days, log[compound] -6.42597
[9] = MV4;11, 7 days, 3 uM, normalized to HPRT1, referenced to DMSO

Row | SMILES | % activity MOLM-13 (MOLM13 cells; log[compound] -4.92082) | % activity MOLM-13 (MOLM13 cells; log[compound] -5.22185) | % activity MOLM-13 (MOLM13 cells; log[compound] -5.52288) | % activity MOLM-13 (MOLM13 cells; log[compound] -5.82391) | % activity MOLM-13 (MOLM13 cells; log[compound] -6.12494) | % activity MOLM-13 (MOLM13 cells; log[compound] -6.42597) | % activity MV4;11 (MV4;11 cells; log[compound] -4.92082) | % activity MV4;11 (MV4;11 cells; log[compound] -5.22185) | % activity MV4;11 (MV4;11 cells; log[compound] -5.52288) | % activity MV4;11 (MV4;11 cells; log[compound] -5.82391) | % activity MV4;11 (MV4;11 cells; log[compound] -6.12494) | % activity MV4;11 (MV4;11 cells; log[compound] -6.42597) | % activity K562 (K562 cells; [3]) | % activity K562 (K562 cells; [4]) | % activity K562 (K562 cells; [5]) | % activity K562 (K562 cells; [6]) | % activity K562 (K562 cells; [7]) | % activity K562 (K562 cells; [8]) | % activity KOPN-8 (KOPN8 cells; log[compound] -4.92082) | % activity KOPN-8 (KOPN8 cells; log[compound] -5.22185) | also measured
1 | CN1CC(C(=O)NCc2ccc3c(-c4cccc(C(N)=S)c4)cn(C4CCN(S(=O)(=O)C(F)(F)F)CC4)c3c2)C1 [AS-99] | 3.13% and 3.054% and 2.978% | 1.145% and 1.069% and 1.222% | 67.0357% and 69.5553% and 72.2275% and 71.6931% | 99.1792% and 96.2016% and 97.7286% and 103.76% | 111.472% and 117.274% and 111.243% and 116.205% | 98.5684% and 93.0712% and 98.6448% and 96.736% | 1.588% and 2.029% | 0.6174% and 0.7056% and 0.9702% | 22.9327% and 24.6086% and 18.5226% and 19.2282% | 65.4465% and 63.065% and 69.151% and 68.269% | 88.9085% and 99.8456% and 101.963% and 98.4344% | 97.7288% and 98.9636% and 100.639% and 102.668% | 34.51% and 35.23% and 31.55% and 35.55% | 83.83% and 82.23% and 83.51% and 86.83% | 95.95% and 103.51% and 103.55% and 93.67% | 96.63% and 103.59% and 103.23% and 96.55% | 84.15% and 92.83% and 97.87% and 96.55% | 86.31% and 85.15% and 89.55% and 92.55% | 5.251% and 4.98% (2×) and 5.115% | 1.863% and 1.728% and 2.134% | GI50 (MOLM13 cells; Homo sapiens, MOLM-13, 168 h, MOLM13 (MLL1-r)): 3.6 ± 0.3 µM; GI50 (MV4;11 cells; Homo sapiens, 168 h, MV4;11 (MLL1-r)): 1.8 ± 0.2 µM; GI50 (K562 cells; Homo sapiens, 168 h, K562 (non MLL1-r), MTT, 7 days): ~10 µM; % activity K562 (K562 cells; MTT, 7 days, log[compound] -6.727): 85.67% and 82.35% and 87.23% and 83.91%; effect on growth/proliferation of K562 cells (K562 cells; leukemia cells without MLL1 translocations): no or limited effects at 10 µM or higher concentrations; GI50 (KOPN8 cells; Homo sapiens, KOPN-8, 168 h, KOPN8 (MLL1-r)): 2.9 ± 0.3 µM; % activity KOPN-8 (KOPN8 cells; log[compound] -5.52288): 50.2371% and 54.1667% and 51.0501% and 53.0827%; % activity KOPN-8 (KOPN8 cells; log[compound] -5.82391): 80.5894% and 71.1043% and 76.5244% and 75.7114%; % activity KOPN-8 (KOPN8 cells; log[compound] -6.12494): 90.8875% and 88.855% and 90.6165% and 83.977%; % activity KOPN-8 (KOPN8 cells; log[compound] -6.42597): 97.1206% and 99.8306% and 104.844% and 96.4431%; % activity KOPN-8 (KOPN8 cells; log[compound] -6.727): 96.0366% and 101.457% and 104.844% and 97.6626%; DLX2 expression [1, 9]: 0.19 and 0.27 and 0.29; FLT3 expression [1, 9]: 0.7 and 0.8 and 0.73; HOXA9 expression [1, 9]: 0.46 and 0.64 and 0.75; MEF2C expression [1, 9]: 0.64 and 0.74 and 0.63; MEIS1 expression [1, 9]: 0.76 and 0.82 and 1.02; MNDA expression [1, 9]: 1.48 and 1.84 and 1.74; GI50 ([2]; Homo sapiens, MLL leukemia cells): 1.8 to 3.6 µM
2 | CN1CC(C(=O)NCc2ccc3c(-c4cccc(C(N)=O)c4)cn(C4CCN(S(=O)(=O)C(F)(F)F)CC4)c3c2)C1 [AS-nc] | 79.465% and 80.5109% and 111.082% and 96.078% | 91.4119% and 88.8777% and 88.5559% and 94.107% | 100.261% and 95.3942% and 100.744% and 98.5318% | 98.572% and 96.1183% and 100.945% and 90.7281% | 105.41% and 99.4972% and 101.227% and 102.474% | 103.801% and 99.1352% and 97.8479% and 99.2156% | 33.9271% and 38.4523% and 37.682% and 37.2006% | 75.4242% and 68.4439% and 74.2207% and 76.0501% | 93.14% and 102.624% and 98.3873% and 102.19% | 95.1619% and 88.5666% and 92.2253% and 96.7986% | 101.179% and 95.4026% and 92.466% and 99.4464% | 105.753% and 96.7024% and 99.7834% and 97.7615% | 87.2356% and 88.3293% and 79.0617% and 81.4793% | 96.906% and 94.8338% and 87.581% and 99.8993% | 91.5527% and 87.8688% and 87.2356% and 88.1566% | 106.979% and 101.569% and 98.9783% and 92.4737% | 95.2367% and 84.818% and 86.8902% and 88.0414% | 88.8473% and 100.475% and 98.4026% and 99.0934% | 88.0603% and 89.0658% and 78.5086% and 67.1135% | 96.2715% and 87.8928% and 88.5631% and 98.2824% | % activity KOPN-8 (KOPN8 cells; log[compound] -5.52288): 93.4227% and 96.9418% and 95.7687% and 88.2279%; % activity KOPN-8 (KOPN8 cells; log[compound] -5.82391): 91.9145% and 89.5685% and 90.7415% and 92.2497%; % activity KOPN-8 (KOPN8 cells; log[compound] -6.12494): 92.2497% and 92.4173% and 96.2715% and 88.7306%; % activity KOPN-8 (KOPN8 cells; log[compound] -6.42597): 96.439% and 101.969% and 107.164% and 94.4282%; MV4;11 fold change vs DMSO, FLT3 ([1]; AS-nc 3 uM): 1.06 and 0.99 and 0.95; MV4;11 fold change vs DMSO, HOXA9 ([1]; AS-nc 3 uM): 1.01 and 0.9; MV4;11 fold change vs DMSO, MEF2C ([1]; AS-nc 3 uM): 1.19 and 1.02 and 0.92; MV4;11 fold change vs DMSO, MESIS1 ([1]; AS-nc 3 uM): 0.86 and 1.07 and 0.96; effect on MLL leukemia cells (viability) ([2]; 7 days): no or much weaker effects
